Experimental data reported in publication PMC8286840, “Identifying SARS-CoV-2 antiviral compounds by screening for small molecule inhibitors of Nsp3 papain-like protease” (Biochemical Journal, 2021).
Structures can show the parent of a compound that is named as a salt. Where two headings read alike, the source gives them in different places.

Experiments:
[1] = molecular target: T1, SARS-CoV-2 PLpro (nsp3 1564–1878) (Severe acute respiratory syndrome coronavirus 2, UniProt P0DTD1); experiment: biochemical; design: FRET-quenched peptide (Pro3) cleavage by PLpro, 10 min pre-incubation, slope over 20 min, normalised to no-compound control; conditions: low concentration screen, read-out: % of control remaining
[2] = molecular target: T1, SARS-CoV-2 PLpro (nsp3 1564–1878); experiment: biochemical; design: FRET-quenched peptide (Pro3) cleavage by PLpro, 10 min pre-incubation, slope over 20 min, normalised to no-compound control; conditions: high concentration screen, read-out: % of control remaining

Structure (SMILES): Oc1ccc2c3c1O[C@H]1c4oc5ccccc5c4C[C@@]4(O)[C@@H](C2)N(CC2CC2)CC[C@]314 [Naltriben methanesulfonate]
- remaining activity at 1.25 µM ([1]; Well no.=1036): 92.8%
- remaining activity at 3.75 µM ([2]; Well no.=1036): 97.4%

Structure (SMILES): Oc1ccc2c3c1O[C@H]1c4[nH]c5ccccc5c4C[C@@]4(O)[C@@H](C2)N(CC2CC2)CC[C@]314 [Naltrindole (hydrochloride)]
- remaining activity at 1.25 µM ([1]; Well no.=7227): 103%
- remaining activity at 3.75 µM ([2]; Well no.=7227): 97.5%

Structure (SMILES): Oc1ccc2c3c1O[C@H]1c4[nH]c5ccccc5c4C[C@@]4(O)[C@@H](C2)N(CC2CC2)CC[C@]314 [Naltrindole hydrochloride]
- remaining activity at 1.25 µM ([1]; Well no.=1053): 92.8%
- remaining activity at 3.75 µM ([2]; Well no.=1053): 93.2%

Structure (SMILES): Oc1ccc2c3c1O[C@H]1c4[nH]c5ccccc5c4C[C@@]4(O)[C@@H](C2)N(CC2CC2)CC[C@]314 [Naltrindole.HCl]
- remaining activity at 1.25 µM ([1]; Well no.=1644): 106%
- remaining activity at 3.75 µM ([2]; Well no.=1644): 104%

Structure (SMILES): CNC(=O)[C@H]1O[C@@H](n2cnc3c(NCc4cccc(I)c4)nc(Cl)nc32)[C@H](O)[C@@H]1O [Namodenoson]
- remaining activity at 1.25 µM ([1]; Well no.=8451): 104%
- remaining activity at 3.75 µM ([2]; Well no.=8451): 104%

Structure (SMILES): CO[C@H]1CC[C@@H](O[C@H]2C[C@H]([C@]3(C)CC[C@]4(C[C@H](O)[C@@H](C)[C@@H]([C@@H](C)/C=C(\C)C(=O)[C@H](C)C[C@H](C)C(=O)O)O4)O3)O[C@]3(O[C@@H]([C@H]4O[C@@](O)(CO)[C@H](C)C[C@@H]4C)C[C@@H]3C)[C@@H]2C)O[C@@H]1C [Nanchangmycin]
- remaining activity at 1.25 µM ([1]; Well no.=4861): 101%
- remaining activity at 3.75 µM ([2]; Well no.=4861): 104%

Structure (SMILES): c1ccc2c(CC3=NCCN3)cccc2c1 [Naphazoline (hydrochloride)]
- remaining activity at 1.25 µM ([1]; Well no.=7529): 96.6%
- remaining activity at 3.75 µM ([2]; Well no.=7529): 97.5%

Structure (SMILES): c1ccc2c(CC3=NCCN3)cccc2c1 [Naphazoline]
- remaining activity at 1.25 µM ([1]; Well no.=2007): 105%
- remaining activity at 3.75 µM ([2]; Well no.=2007): 103%

Structure (SMILES): COc1ccc2cc([C@H](C)C(=O)O)ccc2c1 [Naproxen]
- remaining activity at 1.25 µM ([1]; Well no.=1869): 90.4%
- remaining activity at 3.75 µM ([2]; Well no.=1869): 87.1%

Structure (SMILES): CC[C@@H](C(=O)O)[C@@H]1O[C@@H]([C@@H](C)[C@H](O)[C@H](C)C(=O)[C@H](CC)[C@H]2O[C@]3(C=C[C@@H](O)[C@]4(CC[C@@](C)([C@H]5CC[C@](O)(CC)[C@H](C)O5)O4)O3)[C@H](C)C[C@@H]2C)[C@@H](C)C[C@@H]1C [Narasin]
- remaining activity at 1.25 µM ([1]; Well no.=3258): 94.4%
- remaining activity at 3.75 µM ([2]; Well no.=3258): 96%

Structure (SMILES): CNS(=O)(=O)CCc1ccc2[nH]cc(C3CCN(C)CC3)c2c1 [Naratriptan (hydrochloride)]
- remaining activity at 1.25 µM ([1]; Well no.=7385): 100%
- remaining activity at 3.75 µM ([2]; Well no.=7385): 100%

Structure (SMILES): CNS(=O)(=O)CCc1ccc2[nH]cc(C3CCN(C)CC3)c2c1 [Naratriptan HCl]
- remaining activity at 1.25 µM ([1]; Well no.=4909): 97.9%
- remaining activity at 3.75 µM ([2]; Well no.=4909): 99.8%

Structure (SMILES): O=C1C[C@@H](c2ccc(O)cc2)Oc2cc(O)cc(O)c21 [Naringenin]
- remaining activity at 1.25 µM ([1]; Well no.=3326): 96.4%
- remaining activity at 3.75 µM ([2]; Well no.=3326): 98.3%

Structure (SMILES): C[C@@H]1O[C@@H](O[C@H]2[C@H](Oc3cc(O)c(C(=O)CCc4ccc(O)cc4)c(O)c3)O[C@H](CO)[C@@H](O)[C@@H]2O)[C@H](O)[C@H](O)[C@H]1O [Naringin Dihydrochalcone]
- remaining activity at 1.25 µM ([1]; Well no.=8148): 106%
- remaining activity at 3.75 µM ([2]; Well no.=8148): 97.1%

Structure (SMILES): C[C@@H]1O[C@@H](O[C@H]2[C@H](Oc3cc(O)c4c(c3)O[C@H](c3ccc(O)cc3)CC4=O)O[C@H](CO)[C@@H](O)[C@@H]2O)[C@H](O)[C@H](O)[C@H]1O [Naringin]
- remaining activity at 1.25 µM ([1]; Well no.=3665): 98.4%
- remaining activity at 1.25 µM ([1]; Well no.=8098): 97.4%
- remaining activity at 3.75 µM ([2]; Well no.=3665): 99.9%
- remaining activity at 3.75 µM ([2]; Well no.=8098): 97.5%

Structure (SMILES): C[C@@H]1O[C@@H](OC[C@H]2O[C@@H](Oc3cc(O)c4c(c3)O[C@H](c3ccc(O)cc3)CC4=O)[C@H](O)[C@@H](O)[C@@H]2O)[C@H](O)[C@H](O)[C@H]1O [Narirutin]
- remaining activity at 1.25 µM ([1]; Well no.=3347): 91.9%
- remaining activity at 3.75 µM ([2]; Well no.=3347): 93.8%

Structure (SMILES): CC(C)[C@H]1CC[C@H](C(=O)N[C@H](Cc2ccccc2)C(=O)O)CC1 [Nateglinide]
- remaining activity at 1.25 µM ([1]; Well no.=1546): 103%
- remaining activity at 1.25 µM ([1]; Well no.=7504): 102%
- remaining activity at 3.75 µM ([2]; Well no.=1546): 103%
- remaining activity at 3.75 µM ([2]; Well no.=7504): 102%

Structure (SMILES): CC[C@@H](Nc1c(Nc2cccc(C(=O)N(C)C)c2O)c(=O)c1=O)c1ccc(C)o1 [Navarixin]
- remaining activity at 1.25 µM ([1]; Well no.=8175): 105%
- remaining activity at 3.75 µM ([2]; Well no.=8175): 101%

Structure (SMILES): CC1(C)CCC(c2ccc(Cl)cc2)=C(CN2CCN(c3ccc(C(=O)NS(=O)(=O)c4ccc(N[C@H](CCN5CCOCC5)CSc5ccccc5)c(S(=O)(=O)C(F)(F)F)c4)cc3)CC2)C1 [Navitoclax]
- remaining activity at 1.25 µM ([1]; Well no.=6580): 93.1%
- remaining activity at 1.25 µM ([1]; Well no.=8224): 103%
- remaining activity at 3.75 µM ([2]; Well no.=6580): 92.2%
- remaining activity at 3.75 µM ([2]; Well no.=8224): 94.8%

Structure (SMILES): O[C@H](CNC[C@@H](O)[C@H]1CCc2cc(F)ccc2O1)[C@@H]1CCc2cc(F)ccc2O1 [Nebivolol (hydrochloride)]
- remaining activity at 1.25 µM ([1]; Well no.=8139): 105%
- remaining activity at 3.75 µM ([2]; Well no.=8139): 102%

Structure (SMILES): CN1C(=O)N[C@@H](Cc2c[nH]c3c(Cl)cccc23)C1=O [Necrostatin 2 (S enantiomer)]
- remaining activity at 1.25 µM ([1]; Well no.=7166): 97.6%
- remaining activity at 3.75 µM ([2]; Well no.=7166): 94.3%

Structure (SMILES): CN1C(=O)N[C@H](Cc2c[nH]c3c(Cl)cccc23)C1=O [Necrostatin 2]
- remaining activity at 1.25 µM ([1]; Well no.=6916): 99.4%
- remaining activity at 3.75 µM ([2]; Well no.=6916): 98.6%

Structure (SMILES): CN1C(=O)C(Cc2c[nH]c3ccccc23)NC1=S (stereo not shown) [Necrostatin-1]
- remaining activity at 1.25 µM ([1]; Well no.=2493): 95.6%
- remaining activity at 1.25 µM ([1]; Well no.=6196): 92.6%
- remaining activity at 1.25 µM ([1]; Well no.=8505): 109%
- remaining activity at 3.75 µM ([2]; Well no.=2493): 98.6%
- remaining activity at 3.75 µM ([2]; Well no.=6196): 92.5%
- remaining activity at 3.75 µM ([2]; Well no.=8505): 104%

Structure (SMILES): COc1ccc(-n2c(SCC#N)nc3sc4c(c3c2=O)CCCC4)cc1 [Necrostatin-5]
- remaining activity at 1.25 µM ([1]; Well no.=6060): 98.5%
- remaining activity at 3.75 µM ([2]; Well no.=6060): 95.8%

Structure (SMILES): CCCc1c2oc(C(=O)O)cc(=O)c2cc2c(=O)cc(C(=O)O)n(CC)c12 [Nedocromil]
- remaining activity at 1.25 µM ([1]; Well no.=6525): 95.3%
- remaining activity at 3.75 µM ([2]; Well no.=6525): 95%

Structure (SMILES): CCc1nn(CCCN2CCN(c3cccc(Cl)c3)CC2)c(=O)n1CCOc1ccccc1 [Nefazodone (hydrochloride)]
- remaining activity at 1.25 µM ([1]; Well no.=6765): 97.2%
- remaining activity at 3.75 µM ([2]; Well no.=6765): 92.8%

Structure (SMILES): CCc1nn(CCCN2CCN(c3cccc(Cl)c3)CC2)c(=O)n1CCOc1ccccc1 [Nefazodone]
- remaining activity at 1.25 µM ([1]; Well no.=2009): 101%
- remaining activity at 3.75 µM ([2]; Well no.=2009): 101%

Structure (SMILES): Cc1c(O)cccc1C(=O)N[C@@H](CSc1ccccc1)[C@H](O)CN1C[C@H]2CCCC[C@H]2C[C@H]1C(=O)NC(C)(C)C [Nelfinavir mesylate]
- remaining activity at 1.25 µM ([1]; Well no.=2201): 95.1%
- remaining activity at 1.25 µM ([1]; Well no.=8156): 102%
- remaining activity at 3.75 µM ([2]; Well no.=2201): 97.3%
- remaining activity at 3.75 µM ([2]; Well no.=8156): 103%

Structure (SMILES): O=C(/C=C/c1ccc(O)c(O)c1)O[C@@H]1C[C@@](O)(C(=O)O)C[C@@H](O)[C@@H]1O [Neochlorogenic acid]
- remaining activity at 1.25 µM ([1]; Well no.=6490): 98%
- remaining activity at 3.75 µM ([2]; Well no.=6490): 98.3%
